Test results: patent US6355467B1, “Saccharification enzymes from hyperthermophilic bacteria and processes for their production” (Johns Hopkins University, priority 1989, dated 2002)

How the values were obtained:
P. furiosus = experiment: Effect of adding substrate to the culture medium on saccharification enzyme production; assay type: cell-based, Pyrococcus furiosus; conditions: substrate added to culture
Description: Growth of cells. P. furiosus was grown in artificial sea water supplemented with 10 g/l elemental sulfur and carbohydrate substrate, typically 3 g/l of soluble starch, unless otherwise specified, as described in Example 1. For the present studies, typically one liter bottles were inoculated with 20 ml of a late log phase culture and incubated for 12 hours at 98° C. in a silicon oil bath. Sulfur was removed by filtration and the cell pellet was recovered by centrifugation at about 12,000×g for 30 minutes. Intracellular enzyme preparation. […] The sonicated cells were centrifuged at about 18,000×g for 30 minutes to remove remaining sulfur and cell debris. […] Extracellular enzyme preparation. For extracellular enzyme activities, supernatants from the original centrifugation (i.e., the culture media) were concentrated from 1 liter to about 5 ml using, in succession, a Millipore […] ultrafiltration unit with a 10,000 molecular-weight-cutoff membrane, and a Novacell stirred cell with a 10,000 molecular-weight-cutoff membrane. […] EPPS was used instead of phosphate to prevent precipitation of salts from the media. […] The amount of reducing sugar released was determined using the dinitrosalicylic acid method (Barnfeld, P., 1955, Methods in Enzymology 1:149-50). One unit of enzyme activity was defined as the amount of enzyme that released one nmol of reducing sugar (as a glucose standard) per minute under the assay conditions used. α-Glucosidase was assayed using p-nitrophenyl-α-D-glucopyranoside (PNP-α-G) as substrate, and β-glucosidase was assayed using p-nitrophenyl-β-D-glucopyranoside (PNP-β-G) as substrate. Assays were conducted as follows; for each assay, 1.0 ml of substrate consisting of 10 mM PNP-α-G or PNP-β-G in 0.1 M sodium phosphate buffer, pH 5.5, was pipetted into a quartz cuvette. […] Following the preincubation, enzyme sample (10 μl) was added to the cuvette and the evolution of p-nitrophenol (PNP) was followed by monitoring A405. One unit of glucosidase activity was that amount of enzyme releasing one μmol PNP per minute under the standard conditions, from the appropriate α or β substrate.

[1] = system: P. furiosus α-glucosidase; experiment: Substrate specificity (kinetic assays) of purified α-glucosidase; assay type: biochemical, Pyrococcus furiosus; conditions: substrate hydrolysed by purified α-glucosidase
Description: (§1) α-Glucosidase was assayed using p-nitrophenyl-α-D-glucopyranoside (PNP-α-G) as substrate, and β-glucosidase was assayed using p-nitrophenyl-β-D-glucopyranoside (PNP-β-G) as substrate. Assays were conducted as follows; for each assay, 1.0 ml of substrate consisting of 10 mM PNP-α-G or PNP-β-G in 0.1 M sodium phosphate buffer, pH 5.5, was pipetted into a quartz cuvette. The cuvettes were inserted into a heated cell holder and preincubated for 5 to 10 minutes at the assay temperature of 98° C. Following the preincubation, enzyme sample (10 μl) was added to the cuvette and the evolution of p-nitrophenol (PNP) was followed by monitoring A405.
Substrate specificity. The substrate specificity of the purified α-glucosidase was tested with a variety of natural and synthetic glucosides.

[2] = system: purified P. furiosus α-glucosidase; experiment: Effects of denaturing agents and inhibitors on purified α-glucosidase; assay type: biochemical, Pyrococcus furiosus; conditions: standard assay at 98° C.
Description: as §1, with “A405. One unit of glucosidase activity was that amount of enzyme releasing one μmol PNP per minute under the standard conditions, from the appropriate α or β substrate.” for “A405.”
Resistance to denaturing agents. […] Several denaturing agents were added to p-nitrophenyl-α-D-glucopyranoside, both in the presence and absence of the α-glucosidase, to control for possible degradation of the substrate in the presence of the agents.

OC[C@H]1O[C@H](O[C@H]2[C@H](O)[C@@H](O)C(O)O[C@@H]2CO)[C@H](O)[C@@H](O)[C@@H]1O (mixture of isomers) [Maltose]
best yield of pullulanase per liter of culture (P. furiosus; intracellular): 8020 units | Km [1]: 5.2 mM | Vm [1]: 1760 U/mg

O[C@H](CS)[C@H](O)CS (racemic) [Dithiothreitol]
Activity Remaining ([2]; agent at 100 mM): 83%

O=C(O)CN(CCN(CC(=O)O)CC(=O)O)CC(=O)O [EDTA, Ethylenediaminetetraacetic acid]
Activity Remaining ([2]; agent at 20 mM): 50%

O=C(O)CN(CCOCCOCCN(CC(=O)O)CC(=O)O)CC(=O)O [EGTA, [Ethylenebis(oxyethylenenitrilo)]tetraacetic acid]
Activity Remaining ([2]; agent at 20 μM): 85%

Cl.N=C(N)N [Guanidinium hydrochloride]
Activity Remaining ([2]; agent at 1.0 M): <1%

OC[C@H]1O[C@H](OC[C@H]2OC(O)[C@H](O)[C@@H](O)[C@@H]2O)[C@H](O)[C@@H](O)[C@@H]1O (stereo partly drawn) [Isomaltose]
Km [1]: 8.2 mM | Vm [1]: 951 U/mg

CO[C@H]1O[C@H](CO)[C@@H](O)[C@H](O)[C@H]1O [Methyl-α-D-glucopyranoside]
Km [1]: 0.77 mM | Vm [1]: 186 U/mg

CCCCCCCCCCCCOS(=O)(=O)[O-].[Na+] [Sodium dodecyl sulphate]
Activity Remaining ([2]; agent at 1% (w/v), 30 minutes): 22%

OC[C@H]1O[C@@](CO)(O[C@H]2O[C@H](CO)[C@@H](O)[C@H](O)[C@H]2O)[C@@H](O)[C@@H]1O [Sucrose]
activity relative to p-Nitrophenyl-α-D-glucopyranoside (symbols) [1]: nd (No activity detected (<3% of p-Nitrophenyl-α-D-glucopyranoside))

NC(N)=O [Urea]
Activity Remaining ([2]; agent at 1.0 M): 84%

O=[N+]([O-])c1ccc(O[C@@H]2O[C@H](CO)[C@H](O)[C@H](O)[C@H]2O)cc1 [p-Nitrophenyl-α-D-glucopyranoside]
Km [1]: 0.26 mM | Vm [1]: 287 U/mg

O=[N+]([O-])c1ccc(O[C@@H]2O[C@H](CO)[C@@H](O)[C@H](O)[C@H]2O)cc1 [p-Nitrophenyl-β-D-glucopyranoside]
activity relative to p-Nitrophenyl-α-D-glucopyranoside (symbols) [1]: t (Only a trace of activity could be detected (i.e., ˜3% of the level found with p-Nitrophenyl-α-D-glucopyranoside).)

Starch
best yield of β-glucosidase per liter of culture (P. furiosus; intracellular): 220 units | activity relative to p-Nitrophenyl-α-D-glucopyranoside (symbols) [1]: nd (No activity detected (<3% of p-Nitrophenyl-α-D-glucopyranoside))

glycogen
best yield of amylase per liter of culture (P. furiosus; enzyme in medium): 60,100 units | best yield of α-glucosidase per liter of culture (P. furiosus; intracellular): 9584
